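The concentration for 50% growth inhibition is given as GI50. TGI marks complete inhibition of growth.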
How the values were obtained:
Experiment in all cases: growth of human tumour cells (NCI), 384-well format
[1] = system: A498 renal
[2] = system: A549 NSCLC
[3] = system: ACHN renal
[4] = system: BT-549 breast
[5] = system: CAKI-1 renal
[6] = system: CCRF-CEM leukemia
[7] = system: COLO 205 colon
[8] = system: DU-145 prostate
[9] = system: EKVX NSCLC
[10] = system: HCC-2998 colon
[11] = system: HOP-62 NSCLC
[12] = system: HOP-92 NSCLC
[13] = system: HS 578T breast
[14] = system: HT29 colon
[15] = system: K-562 leukemia
[16] = system: LOX IMVI melanoma
[17] = system: M14 melanoma
[18] = system: MALME-3M melanoma
[19] = system: MCF7 breast
[20] = system: MDA-MB-231 breast
[21] = system: MDA-MB-435 melanoma
[22] = system: MOLT-4 leukemia
[23] = system: NCI-H226 lung
[24] = system: NCI-H23 lung
[25] = system: NCI-H322M lung
[26] = system: NCI-H460 NSCLC
[27] = system: NCI-H522 lung
[28] = system: NCI/ADR-RES ovarian
[29] = system: OVCAR-3 ovarian
[30] = system: OVCAR-4 ovarian
[31] = system: OVCAR-5 ovarian
[32] = system: PC-3 prostate
[33] = system: RPMI-8226 leukemia
[34] = system: RXF 393 renal
[35] = system: SF-268 CNS
[36] = system: SF-295 CNS
[37] = system: SF-539 CNS
[38] = system: SK-MEL-2 melanoma
[39] = system: SK-MEL-28 melanoma
[40] = system: SK-OV-3 ovarian
[41] = system: SN12C renal
[42] = system: SNB-19 CNS
[43] = system: SNB-75 CNS
[44] = system: SR leukemia
[45] = system: T-47D breast
[46] = system: U251 glioblastoma
[47] = system: UO-31 renal

Compound N=C(N)c1ccc2nc(-c3cc(CC(=O)N[C@@H](CC(=O)O)C(=O)O)cc(-c4cc(S(N)(=O)=O)ccc4O)c3O)[nH]c2c1 has a GI50 [1] greater than 100 µM, a TGI [1] greater than 100 µM and a GI50 [2] greater than 100 µM. It also gave a TGI [2] greater than 100 µM, a GI50 [3] greater than 100 µM and a TGI [3] greater than 100 µM. It also gave a GI50 [4] greater than 100 µM, a TGI [4] greater than 100 µM and a GI50 [5] greater than 100 µM. The TGI [5] was greater than 100 µM, the GI50 [6] was greater than 100 µM and the TGI [6] was greater than 100 µM. For the same compound, the GI50 [7] was greater than 100 µM, the TGI [7] was greater than 100 µM and the GI50 [8] was greater than 100 µM. The TGI [8] was greater than 100 µM, the GI50 [9] was greater than 100 µM and the TGI [9] was greater than 100 µM. The GI50 [10] was greater than 100 µM, the TGI [10] was greater than 100 µM and the GI50 [11] was greater than 100 µM. The TGI [11] was greater than 100 µM, the GI50 [12] was greater than 100 µM and the TGI [12] was greater than 100 µM. For the same compound, the GI50 [13] was greater than 100 µM, the TGI [13] was greater than 100 µM and the GI50 [14] was greater than 100 µM. It also gave a TGI [14] greater than 100 µM, a GI50 [15] greater than 100 µM and a TGI [15] greater than 100 µM. For the same compound, the GI50 [16] was greater than 100 µM, the TGI [16] was greater than 100 µM and the GI50 [17] was greater than 100 µM. For the same compound, the TGI [17] was greater than 100 µM, the GI50 [18] was greater than 100 µM and the TGI [18] was greater than 100 µM. For the same compound, the GI50 [19] was greater than 71.5 µM, the TGI [19] was greater than 100 µM and the GI50 [20] was greater than 100 µM. For the same compound, the TGI [20] was greater than 100 µM, the GI50 [21] was greater than 100 µM and the TGI [21] was greater than 100 µM. The GI50 [22] was greater than 100 µM, the TGI [22] was greater than 100 µM and the GI50 [23] was greater than 100 µM. The TGI [23] was greater than 100 µM, the GI50 [24] was greater than 100 µM and the TGI [24] was greater than 100 µM. The GI50 [25] was greater than 100 µM, the TGI [25] was greater than 100 µM and the GI50 [26] was greater than 100 µM. For the same compound, the TGI [26] was greater than 100 µM, the GI50 [27] was greater than 100 µM and the TGI [27] was greater than 100 µM. The GI50 [28] was greater than 100 µM, the TGI [28] was greater than 100 µM and the GI50 [29] was greater than 100 µM. For the same compound, the TGI [29] was greater than 100 µM, the GI50 [30] was greater than 100 µM and the TGI [30] was greater than 100 µM. The GI50 [31] was greater than 100 µM, the TGI [31] was greater than 100 µM and the GI50 [32] was greater than 100 µM. It also gave a TGI [32] greater than 100 µM, a GI50 [33] greater than 100 µM and a TGI [33] greater than 100 µM. For the same compound, the GI50 [34] was greater than 100 µM, the TGI [34] was greater than 100 µM and the GI50 [35] was greater than 100 µM. The TGI [35] was greater than 100 µM, the GI50 [36] was greater than 100 µM and the TGI [36] was greater than 100 µM. For the same compound, the GI50 [37] was greater than 100 µM, the TGI [37] was greater than 100 µM and the GI50 [38] was greater than 100 µM. For the same compound, the TGI [38] was greater than 100 µM, the GI50 [39] was greater than 100 µM and the TGI [39] was greater than 100 µM. For the same compound, the GI50 [40] was greater than 100 µM, the TGI [40] was greater than 100 µM and the GI50 [41] was greater than 100 µM. The TGI [41] was greater than 100 µM, the GI50 [42] was greater than 100 µM and the TGI [42] was greater than 100 µM. For the same compound, the GI50 [43] was greater than 100 µM, the TGI [43] was greater than 100 µM and the GI50 [44] was greater than 100 µM. It also gave a TGI [44] greater than 100 µM, a GI50 [45] greater than 100 µM and a TGI [45] greater than 100 µM. For the same compound, the GI50 [46] was greater than 100 µM, the TGI [46] was greater than 100 µM and the GI50 [47] was greater than 100 µM. It also gave a TGI [47] greater than 100 µM.

From PubChem BioAssay (NCI)
